The record followed here is patent US20260248763A1 (BIO GENUINE (SHANGHAI) BIOTECH CO., LTD, priority 2023, published 2026).

Like-named read-outs stand apart in the source and are kept apart here.

One data set deals with T1, OTR (Homo sapiens, UniProt P30559).
T1 construct: expressed in transfected cells; host or cells: OTR/HEK293 stably transfected cell line
T1 sequence (P30559 1-389): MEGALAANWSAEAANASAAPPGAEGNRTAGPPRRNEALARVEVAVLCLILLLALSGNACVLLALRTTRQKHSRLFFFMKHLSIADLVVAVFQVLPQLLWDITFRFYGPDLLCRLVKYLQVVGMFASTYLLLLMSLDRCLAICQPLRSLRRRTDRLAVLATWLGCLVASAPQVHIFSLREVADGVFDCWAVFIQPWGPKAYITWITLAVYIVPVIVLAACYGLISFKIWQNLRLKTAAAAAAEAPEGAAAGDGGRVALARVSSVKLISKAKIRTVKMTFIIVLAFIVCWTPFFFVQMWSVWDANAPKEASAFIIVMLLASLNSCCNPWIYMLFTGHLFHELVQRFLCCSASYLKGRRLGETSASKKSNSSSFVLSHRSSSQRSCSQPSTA
Briefly: Ca2+ mobilization in cells stably expressing OTR (FLIPR, antagonist mode). The class given is cell-based. As to conditions: OTR/HEK293 stably transfected cell line. The gist of the method:
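Antagonist mode: test compounds in 10-point 3-fold series were added on FLIPR to Fluo-4-loaded HEK293 cells stably expressing OTR, followed by reference agonist at its EC80, determined beforehand. The Max-Min calcium fluorescence response was fitted in Prism.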
(In general: A change in cytosolic calcium serves as a functional read-out for many receptors and channels.)

Data set [1] is described as follows: Pharmacokinetic determination in SD rats. Conditions: rat, female SD rats, plasma; for AUC(0-t): read-out: Area under the curve AUC0-t; for clearance: read-out: Clearance Cl; for half-life: read-out: Half-life T1/2 (converted). It is filed as in vivo. As for the experimental part: Test Example 3: Pharmacokinetic Determination in SD Rats
In this study, female SD rats were selected as test animals. The LC/MS/MS method was used to quantitatively determine the plasma drug concentrations of the test compounds at different time points after intravenous injection (2 mg/kg) or oral administration (5 mg/kg) in rats, so as to evaluate the pharmacokinetic profile of the test drugs in rats.
The example compounds of the present disclosure, made in house.
SD rats (female, 180-220 g, 6-8 weeks old, purchased from Beijing Vital River Laboratory Animal Technology Co., Ltd., with animal production license number SCXK (Beijing) 2021-0006).
Vehicle for intravenous administration: 5% DMSO+10% Solutol+85% Saline.
Vehicle for oral administration: 5% DMSO+95% PEG400.
The test compound, formulated as a clear solution or suspension, was administered to overnight-fasted SD rats via tail vein injection or oral gavage. For intravenous administration, blood samples (0.25 mL) were collected via jugular vein puncture at pre-dose (0 h) and 0.083, 0.25, 0.5, 1, 2, 4, 6, 8, and 24 h post-dose. The samples were placed into sodium heparin anticoagulant tubes, and the mixture was vortexed thoroughly and centrifuged at 6,000 rpm for 3 minutes at 4° C. For oral gavage, blood samples were collected via jugular vein puncture at pre-dose (0 h) and 0.083, 0.25, 1, 2, 4, 6, 8, and 24 h post-dose. The samples were placed into sodium heparin anticoagulant tubes, and the mixture was vortexed thoroughly and centrifuged at 6,000 rpm for 3 minutes. Plasma drug concentrations were determined using the LC-MS/MS method, and the relevant pharmacokinetic parameters were calculated using the non-compartmental model with linear-log trapezoidal method in Phoenix WinNonlin 8.2.0 pharmacokinetic software.

What is called IC50 is the concentration that gives 50% inhibition. High values mean weaker potency in that assay, low ones greater potency in that assay. As usually defined, the clearance is the rate of elimination divided by the concentration.

With `CON=C1CC(CO)N(C(=O)c2ccc(-c3cccc(C#N)c3C)c3c2OCO3)C1` (single isomer, unassigned) [Example C0099], on OTR, the IC50 is 0.0175 µM.
Still for that read-out and setting: for `CO/N=C1/C[C@@H]([C@@H](C)O)N(C(=O)c2ccc(-c3cccc(C#N)c3C)cc2)C1` (single isomer, unassigned) [Example C0112] the value was 0.00751 µM.
For `CO/N=C1/C[C@@H](CO)N(C(=O)c2ccc(-c3cccc(C#N)c3Cl)cc2)C1` [Example A0203, 2-Chloro-3-(4-[(2S, 4Z)-2-(hydroxymethyl)-4-(methoxyimino)pyrrolidine-1-carbonyl]phenyl)benzonitrile], in data set [1] (2 mg/kg, IV (2 mpk)), the AUC(0-t) came to 7160 ng·h/mL, the clearance was determined as 4.66 mL/min/kg and the half-life was 5.23 h. Moreover, in data set [1] (5 mg/kg, PO (5 mpk)), the AUC(0-t) worked out at 16000 ng·h/mL and the half-life was 5.97 h. On OTR, the concentration for half-maximal inhibition (IC50) was found to be 0.0208 µM.
`CO/N=C1/C[C@@H](CO)N(C(=O)c2ccc(-c3cccc(C#N)c3C)cc2)C1` [Example C0058, (S, Z)-4′-(2-(Hydroxymethyl)-4-(methoxyimino)pyrrolidine-1-carbonyl)-2-methyl-[1,1′-biphenyl]-3-carbonitrile]: in data set [1] (2 mg/kg, IV (2 mpk)), the AUC(0-t) came out at 4640 ng·h/mL, the clearance was determined as 7.4 mL/min/kg and the half-life was 3 h. In data set [1] (5 mg/kg, PO (5 mpk)), the AUC(0-t) stood at 11400 ng·h/mL and the half-life was 3.11 h. In addition, on OTR, half-maximal inhibition (IC50) was put at 0.0177 µM.
Consider `CO/N=C1/C[C@@H](CO)N(C(=O)c2ccc(-c3cc(F)cc(C#N)c3C)c3c2OCCO3)C1` [Example C0152, (S,Z)-5-Fluoro-3-(8-(2-(hydroxymethyl)-4-(methoxyimino)pyrrolidine-1-carbonyl)-2,3-dihydrobenzo[b][1,4]dioxin-5-yl)-2-methylbenzonitrile], for which 0.00663 µM corresponded to half-maximal inhibition against OTR (IC50).
